# In paper PMC6895203, “Conformational pathway provides unique sensitivity to a synaptic mGluR” (Nature Communications, 2019):
# “And” between values parts separate entries of the source, which are not always exact repeats. Equal values may be shown once.
# Experiments:
# [1] = molecular target: T1, CLIP-mGluR2/SNAP-mGluR7 heterodimer (mGluR2/7) (Rattus norvegicus, UniProt P31421+P35400); assay: Live-cell ensemble FRET of mGluR2/7 heterodimer in HEK293 cells; type: cell-based; set-up: Flag (N); HA (N); made in house; host or cells: HEK293T; details: for normalized FRET response (Figure 3c titration), AVG: right block
# T1 sequence (P31421 19-872): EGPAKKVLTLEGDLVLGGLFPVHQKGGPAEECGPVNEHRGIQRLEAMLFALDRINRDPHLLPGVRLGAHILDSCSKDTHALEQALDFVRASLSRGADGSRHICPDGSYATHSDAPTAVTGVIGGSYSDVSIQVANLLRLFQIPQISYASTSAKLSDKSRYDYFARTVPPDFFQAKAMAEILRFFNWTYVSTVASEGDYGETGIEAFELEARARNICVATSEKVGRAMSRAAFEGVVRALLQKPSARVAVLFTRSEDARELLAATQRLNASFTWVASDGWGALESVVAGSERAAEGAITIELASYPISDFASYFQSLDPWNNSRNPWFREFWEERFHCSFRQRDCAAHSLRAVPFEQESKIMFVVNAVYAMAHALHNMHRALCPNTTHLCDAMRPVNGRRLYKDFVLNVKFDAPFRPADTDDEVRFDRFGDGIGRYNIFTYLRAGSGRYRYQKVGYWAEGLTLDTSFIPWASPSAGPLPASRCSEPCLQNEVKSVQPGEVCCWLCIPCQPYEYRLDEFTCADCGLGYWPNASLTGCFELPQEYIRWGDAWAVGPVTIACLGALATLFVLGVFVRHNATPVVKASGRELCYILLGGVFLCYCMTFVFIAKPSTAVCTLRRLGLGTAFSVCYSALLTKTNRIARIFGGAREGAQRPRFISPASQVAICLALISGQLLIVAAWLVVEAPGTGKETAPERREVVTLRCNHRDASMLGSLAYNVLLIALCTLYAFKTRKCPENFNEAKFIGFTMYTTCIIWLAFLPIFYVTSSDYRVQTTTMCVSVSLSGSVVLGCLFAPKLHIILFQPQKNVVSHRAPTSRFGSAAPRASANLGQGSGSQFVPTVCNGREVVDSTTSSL
# T1 sequence (P35400 35-915): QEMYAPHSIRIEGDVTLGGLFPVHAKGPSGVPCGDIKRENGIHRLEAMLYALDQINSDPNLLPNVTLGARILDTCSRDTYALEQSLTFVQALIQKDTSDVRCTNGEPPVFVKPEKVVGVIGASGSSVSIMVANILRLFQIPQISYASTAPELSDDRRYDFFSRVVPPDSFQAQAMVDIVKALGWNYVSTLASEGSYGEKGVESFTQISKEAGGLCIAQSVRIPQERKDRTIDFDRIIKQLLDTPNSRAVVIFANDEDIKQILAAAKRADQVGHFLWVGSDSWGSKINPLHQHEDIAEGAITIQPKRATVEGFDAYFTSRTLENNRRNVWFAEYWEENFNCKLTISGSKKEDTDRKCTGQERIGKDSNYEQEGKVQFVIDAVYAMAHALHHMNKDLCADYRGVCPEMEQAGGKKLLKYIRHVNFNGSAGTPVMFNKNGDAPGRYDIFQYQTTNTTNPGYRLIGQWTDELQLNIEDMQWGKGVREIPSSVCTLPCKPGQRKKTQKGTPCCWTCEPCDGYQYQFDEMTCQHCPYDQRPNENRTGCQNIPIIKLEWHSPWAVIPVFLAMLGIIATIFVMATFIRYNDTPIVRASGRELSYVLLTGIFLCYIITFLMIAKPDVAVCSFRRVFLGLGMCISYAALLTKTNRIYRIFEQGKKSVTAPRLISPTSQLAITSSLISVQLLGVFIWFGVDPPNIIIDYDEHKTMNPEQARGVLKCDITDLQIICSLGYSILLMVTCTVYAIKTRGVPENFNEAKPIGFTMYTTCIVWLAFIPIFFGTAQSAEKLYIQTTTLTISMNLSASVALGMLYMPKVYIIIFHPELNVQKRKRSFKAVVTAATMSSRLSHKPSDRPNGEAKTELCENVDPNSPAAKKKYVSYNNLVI
# Experimental: The co-expression of SNAP-mGluR7 and CLIP-mGluR2 is expected to yield three dimer stoichiometries: the homodimeric SNAP-mGluR7/SNAP-mGluR7; the homodimeric CLIP-mGluR2/CLIP-mGluR2, and the heterodimeric SNAP-mGluR7/CLIP-mGluR2. Of these, only the heterodimer combines the donor and acceptor and produces a FRET signal.
# (§1) After labeling, cells were mounted on an upright, scanning confocal microscope (Zeiss LSM 780) and imaged with a 20X objective. […] Clusters of cells were analyzed together and FRET was calculated as FRET = (IA)/(ID + IA), in which ID is the fluorescence donor intensity and IA is the fluorescence acceptor intensity. […] Fitting of dose–response curves was performed using Prism (Graphpad). […] Drugs were delivered with a gravity-driven perfusion system.
# SNAP-mGluR4/4 homodimer = molecular target: T2, SNAP-mGluR4/4 homodimer (Rattus norvegicus, UniProt P31423); assay: Live-cell ensemble FRET of SNAP-mGluR4/4 homodimer in HEK293 cells; type: cell-based
# T2 construct: HA (N); expressed in transfected cells; host or cells: HEK293 / HEK293T
# T2 sequence (P31423 33-912): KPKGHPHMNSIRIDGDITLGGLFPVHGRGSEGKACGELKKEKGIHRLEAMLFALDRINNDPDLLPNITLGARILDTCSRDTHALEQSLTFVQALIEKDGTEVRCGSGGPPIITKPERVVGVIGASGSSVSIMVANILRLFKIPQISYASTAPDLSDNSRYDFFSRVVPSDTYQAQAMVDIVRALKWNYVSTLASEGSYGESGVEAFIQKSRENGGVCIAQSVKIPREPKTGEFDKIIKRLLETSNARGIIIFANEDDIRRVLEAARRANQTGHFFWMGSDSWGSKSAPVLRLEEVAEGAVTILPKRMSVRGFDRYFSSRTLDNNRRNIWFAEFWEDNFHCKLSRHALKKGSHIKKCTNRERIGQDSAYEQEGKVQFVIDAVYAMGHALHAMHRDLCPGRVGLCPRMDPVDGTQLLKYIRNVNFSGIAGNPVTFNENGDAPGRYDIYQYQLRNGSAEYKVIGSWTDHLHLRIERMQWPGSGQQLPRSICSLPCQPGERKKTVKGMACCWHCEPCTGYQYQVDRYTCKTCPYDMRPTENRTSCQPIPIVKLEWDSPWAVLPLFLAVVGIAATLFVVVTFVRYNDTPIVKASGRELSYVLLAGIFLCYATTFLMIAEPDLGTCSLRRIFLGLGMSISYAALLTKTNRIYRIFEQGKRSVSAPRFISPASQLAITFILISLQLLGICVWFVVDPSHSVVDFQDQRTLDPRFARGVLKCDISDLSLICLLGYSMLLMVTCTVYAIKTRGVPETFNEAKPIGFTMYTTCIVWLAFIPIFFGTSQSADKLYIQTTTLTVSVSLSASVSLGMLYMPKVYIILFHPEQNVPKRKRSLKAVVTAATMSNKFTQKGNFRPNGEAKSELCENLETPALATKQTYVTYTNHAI
# Experimental: as §1
# [2] = molecular target: T3, CLIP-mGluR3/SNAP-mGluR7 heterodimer (mGluR3/7) (Rattus norvegicus, UniProt P31422+P35400); assay: smFRET on CLIP-mGluR3/SNAP-mGluR7 heterodimers; type: biochemical; details: for smFRET histogram value: 10uM Glu
# T3 construct: Flag (N); HA (N); made in house; host or cells: HEK293T
# T3 sequence (P31422 23-879): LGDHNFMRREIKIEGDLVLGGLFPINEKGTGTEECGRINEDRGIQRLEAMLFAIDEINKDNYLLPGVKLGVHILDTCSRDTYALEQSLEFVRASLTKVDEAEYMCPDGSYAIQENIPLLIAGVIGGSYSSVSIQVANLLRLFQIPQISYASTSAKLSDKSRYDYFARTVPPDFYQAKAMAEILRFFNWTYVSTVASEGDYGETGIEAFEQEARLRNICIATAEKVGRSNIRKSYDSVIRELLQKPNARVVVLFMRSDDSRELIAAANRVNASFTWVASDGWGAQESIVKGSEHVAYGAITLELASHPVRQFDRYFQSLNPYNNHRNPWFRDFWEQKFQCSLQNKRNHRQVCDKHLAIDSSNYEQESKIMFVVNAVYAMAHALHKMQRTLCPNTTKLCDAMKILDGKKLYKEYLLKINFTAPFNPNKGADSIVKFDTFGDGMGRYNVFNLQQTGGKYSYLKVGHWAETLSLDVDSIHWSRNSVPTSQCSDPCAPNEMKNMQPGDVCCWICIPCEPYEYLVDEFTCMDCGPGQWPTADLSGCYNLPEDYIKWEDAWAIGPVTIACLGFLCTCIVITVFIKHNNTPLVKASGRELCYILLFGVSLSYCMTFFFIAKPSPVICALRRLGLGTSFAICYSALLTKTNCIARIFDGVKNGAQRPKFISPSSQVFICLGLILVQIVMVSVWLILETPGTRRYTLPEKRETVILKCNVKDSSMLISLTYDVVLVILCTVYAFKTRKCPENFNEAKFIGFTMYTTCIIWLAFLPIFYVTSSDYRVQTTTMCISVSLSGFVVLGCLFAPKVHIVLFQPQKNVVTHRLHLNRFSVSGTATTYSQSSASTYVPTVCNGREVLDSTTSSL
# T3 sequence (P35400 35-915): as the sequence (P35400 35-915) above
# Experimental: Samples were prepared in the same manner as for mGluR2/7 heterodimers and imaged in smFRET.
# (100 ms time resolution).
# [3] = molecular target: T1, CLIP-mGluR2/SNAP-mGluR7 heterodimer (mGluR2/7); assay: smFRET on isolated CLIP-mGluR2/SNAP-mGluR7 heterodimers
# [4] = molecular target: SNAP-mGluR2/SNAP-mGluR2 homodimer (mGluR2/2) (Rattus norvegicus, UniProt P31421); assay: Live-cell ensemble FRET of SNAP-mGluR2/2 homodimer in HEK293T cells; type: cell-based; set-up: HA (N); made in house; host or cells: HEK293T; details: for normalized FRET response (Figure 3c titration), AVG: left block
# Sequence of SNAP-mGluR2/SNAP-mGluR2 homodimer (mGluR2/2) (P31421 19-872): as the sequence (P31421 19-872) above
# Experimental: as §1
smiles,measurement,setting,value
N[C@@H](CCC(=O)O)C(=O)O [glutamate],"major high affinity component, share of total ΔFRET",[1]; live-cell ensemble FRET,~ 80%
same,"minor lower affinity component, share of total ΔFRET",[1]; live-cell ensemble FRET,~ 20%
same,"normalized FRET response (Figure 3c titration), AVG","[1]; Glu 1uM, normalized to 10 mM",0.05708
same,"normalized FRET response (Figure 3c titration), AVG",[1]; Glu 2uM,0.1039
same,"normalized FRET response (Figure 3c titration), AVG",[1]; Glu 5uM,0.2535
same,"normalized FRET response (Figure 3c titration), AVG",[1]; Glu 10uM,0.4051
same,"normalized FRET response (Figure 3c titration), AVG",[1]; Glu 20uM,0.6543
same,"normalized FRET response (Figure 3c titration), AVG",[1]; Glu 50uM,0.6971
same,"normalized FRET response (Figure 3c titration), AVG",[1]; Glu 100uM,0.7929
same,"normalized FRET response (Figure 3c titration), AVG",[1]; Glu 200uM,0.7943
same,"normalized FRET response (Figure 3c titration), AVG",[1]; Glu 500uM,0.8921
same,"normalized FRET response (Figure 3c titration), AVG",[1]; Glu 1mM,0.9417
same,"normalized FRET response (Figure 3c titration), AVG",[1]; Glu 2mM,1.009
same,"normalized FRET response (Figure 3c titration), AVG",[1]; Glu 10mM (normalization point),1
same,"titration values, single replicates 1-3","SNAP-mGluR4/4 homodimer; Glu 1e-8, individual replicates",0
same,"titration values, AVG (normalized response)",SNAP-mGluR4/4 homodimer; Glu 1e-7,0.0203
same,"titration values, single replicates 1-3","SNAP-mGluR4/4 homodimer; Glu 1e-7, individual replicates, listed as Glu",0.03656 and 0.01694 and 0.007398
same,"titration values, AVG (normalized response)",SNAP-mGluR4/4 homodimer; Glu 1e-6,0.0444
same,"titration values, single replicates 1-3","SNAP-mGluR4/4 homodimer; Glu 1e-6, individual replicates, listed as Glu",0.05482 and 0.03845 and 0.03991
same,"titration values, AVG (normalized response)",SNAP-mGluR4/4 homodimer; Glu 1e-5,0.4393
same,"titration values, single replicates 1-3","SNAP-mGluR4/4 homodimer; Glu 1e-5, individual replicates, listed as Glu",0.4343 and 0.4025 and 0.481
same,"titration values, AVG (normalized response)",SNAP-mGluR4/4 homodimer; Glu 0.0001,0.8959
same,"titration values, single replicates 1-3","SNAP-mGluR4/4 homodimer; Glu 0.0001, individual replicates, listed as Glu",0.9016 and 0.8805 and 0.9055
same,"titration values, AVG (normalized response)",SNAP-mGluR4/4 homodimer; Glu 0.001 (normalisation point),1
same,"titration values, single replicates 1-3","SNAP-mGluR4/4 homodimer; Glu 0.001 (normalisation point), individual replicates",1
same,smFRET histogram value,[2]; FRET bin 0,5.12E-04
same,smFRET histogram value,[2]; FRET bin 0.02,0.00118
same,smFRET histogram value,[2]; FRET bin 0.04,0.00527
same,smFRET histogram value,[2]; FRET bin 0.06,0.01241
same,smFRET histogram value,[2]; FRET bin 0.08,0.03308
same,smFRET histogram value,[2]; FRET bin 0.1,0.05942
same,smFRET histogram value,[2]; FRET bin 0.12,0.08729
same,smFRET histogram value,[2]; FRET bin 0.14,0.111
same,smFRET histogram value,[2]; FRET bin 0.16,0.1262
same,smFRET histogram value,[2]; FRET bin 0.18,0.1233
same,smFRET histogram value,[2]; FRET bin 0.2,0.1027
same,smFRET histogram value,[2]; FRET bin 0.22,0.08729
same,smFRET histogram value,[2]; FRET bin 0.24,0.06369
same,smFRET histogram value,[2]; FRET bin 0.26,0.04632
same,smFRET histogram value,[2]; FRET bin 0.28,0.03089
same,smFRET histogram value,[2]; FRET bin 0.3,0.01963
same,smFRET histogram value,[2]; FRET bin 0.32,0.01469
same,smFRET histogram value,[2]; FRET bin 0.34,0.01371
same,smFRET histogram value,[2]; FRET bin 0.36,0.01107
same,smFRET histogram value,[2]; FRET bin 0.38,0.01037
same,smFRET histogram value,[2]; FRET bin 0.4,0.00851
same,smFRET histogram value,[2]; FRET bin 0.42,0.00558
same,smFRET histogram value,[2]; FRET bin 0.44,0.00425
same,smFRET histogram value,[2]; FRET bin 0.46,0.00239
same,smFRET histogram value,[2]; FRET bin 0.48,0.00285
same,smFRET histogram value,[2]; FRET bin 0.5,0.00309
same,smFRET histogram value,[2]; FRET bin 0.52,0.00461
same,smFRET histogram value,[2]; FRET bin 0.54,0.00369
same,smFRET histogram value,[2]; FRET bin 0.56,0.00265
same,smFRET histogram value,[2]; FRET bin 0.58,0.00122
same,smFRET histogram value,[2]; FRET bin 0.6,7.52E-04
same,smFRET histogram value,[2]; FRET bin 0.62,8.08E-05
same,smFRET histogram value,[2]; FRET bin 0.64,4.04E-05
same,smFRET histogram value,[2]; FRET bin 0.66,1.92E-05
same,smFRET histogram value,[2]; FRET bin 0.68,1.92E-05
same,smFRET histogram value,[2]; FRET bin 0.7,6.75E-05
same,smFRET histogram value,[2]; FRET bin 0.72,4.04E-05
same,smFRET histogram value,[2]; FRET bin 0.74,7.95E-06
same,smFRET histogram value,[2]; FRET bin 0.76,1.62E-04
same,smFRET histogram value,[2]; FRET bin 0.78,4.04E-05
same,smFRET histogram value,[2]; FRET bin 0.8,0
same,smFRET histogram value,[2]; FRET bin 0.82,0
same,smFRET histogram value,[2]; FRET bin 0.84,0
same,smFRET histogram value,[2]; FRET bin 0.86,0
same,smFRET histogram value,[2]; FRET bin 0.88,0
same,smFRET histogram value,[2]; FRET bin 0.9,0
same,smFRET histogram value,[2]; FRET bin 0.92,0
same,smFRET histogram value,[2]; FRET bin 0.94,0
same,smFRET histogram value,[2]; FRET bin 0.96,0
same,smFRET histogram value,[2]; FRET bin 0.98,0
same,smFRET histogram value,[2]; FRET bin 1,0
same,active state occupancy,[2]; 10 μM glutamate,~ 95%
same,occupancy of the low FRET active state,[3]; 10 μM glutamate,~ 50%
same,smFRET level,[3]; 10 mM glutamate,~ 0.2
same,"minor low affinity component, share",[3]; smFRET,~ 20%
same,occupancy of low FRET activated conformation at top of biphasic relation,[3]; smFRET,full occupancy
same,"major high affinity component (single-subunit liganding), share of maximal activation","[3]; smFRET, top of first component at 1 mM glutamate",~ 80%
same,"fractional change in FRET (Figure 1c), Average","[4]; 1 mM glutamate, live cells",0.0345
same,"normalized FRET response (Figure 3c titration), AVG","[4]; Glu 1uM, normalized to 10 mM",0.02436
same,"normalized FRET response (Figure 3c titration), AVG",[4]; Glu 5uM,0.1119
same,"normalized FRET response (Figure 3c titration), AVG",[4]; Glu 10uM,0.2744
same,"normalized FRET response (Figure 3c titration), AVG",[4]; Glu 20uM,0.534
same,"normalized FRET response (Figure 3c titration), AVG",[4]; Glu 50uM,0.7966
same,"normalized FRET response (Figure 3c titration), AVG",[4]; Glu 100uM,0.8891
same,"normalized FRET response (Figure 3c titration), AVG",[4]; Glu 200uM,0.9536
same,"normalized FRET response (Figure 3c titration), AVG",[4]; Glu 500uM,0.9786
same,"normalized FRET response (Figure 3c titration), AVG",[4]; Glu 1mM,0.9832
same,"normalized FRET response (Figure 3c titration), AVG",[4]; Glu 10mM (normalization point),1
